Measured values published in US20030089885A1, “Use of low molecular weight acetal, alcohol, acylated alcohol and ester compounds to block or reduce odor of carboxylic acids” (Senomyx, Inc., priority 2001, published 2003).

Legend:
isovaleric acid [1] = assay: Malodor Reduction Test (cross-adaptation, Labeled Magnitude Scale); type: in vivo; settings: Homo sapiens, inhaled or nasal; 1% (v/v) test substance in diethylphthalate sniffed before 56 ppm aqueous isovaleric acid; perceived intensity on LMS
Protocol: a) Malodor Reduction Test
Each subject's sense of smell was tested using a smell identification test and an isovaleric acid threshold test. To pass the smell ID test the subject had to correctly identify the aromas of peach, spearmint, cinnamon, lime, pineapple and clove. To pass the isovaleric acid threshold test subjects had to detect the odor of isovaleric acid in a one part-per-million (1 ppm weight/volume) aqueous isovaleric acid solution. This is above the 0.12 ppm threshold for a person with a normal sense of smell and below the 5.0 ppm threshold for a person with a specific anosmia to isovaleric acid (Amoore 1977). The use of an odor ID and a threshold test to identify subjects with a normal sense of smell is standard practice, (Cain, Gent et al. 1983).
The target malodor, isovaleric acid, was presented to the subject in a 60 mL, wide mouth amber, screw cap jar. The concentration of isovaleric acid in water that gave an odor intensity of strong or higher on the Labeled Magnitude Scale was 56 parts-per-million (weight/volume). Five milliliters of a 1% (v/v) solution of the test substance in diethylphthalate (DEP) presented in a 20 ml glass vial were used to evaluate the blocker candidate. The labeled the Labeled Magnitude Scale (LMS, FIG. 1) was developed for the quantitative measurement of taste, irritation and odor intensities (Green, Shaffer et al. 1993; Green, Dalton et al. 1996).
Evaluation of a sample for malodor blocking was as follows: a) The subject sniffed the isovaleric acid (target) with both nostrils and scored its intensity using the Labeled Magnitude Scale (LMS), b) The subject waited one minute, c) the subject sniffed the candidate compound twice with the left and then twice with the right nostril, d) the subject sniffed the isovaleric acid target sample within 20 seconds with both nostrils and scored its odor using the LMS, and e) the subject waited for two minutes before proceeding to the next test substance.
The percent malodor reduction (% MOR) was calculated using the following formula:
% MOR=[1−(IVAInt after CA/IVAINT before CA)]×100 where: IVA isovaleric acid
The ratio in this equation goes from zero (complete blocking) to one (no blocking). The % malodor reduction moves in the opposite direction and goes from 100% for complete blocking to 0% for no blocking.
Tables 1, 2, and 3 present the percent malodor reduction for some low molecular weight acetals, alcohols and esters respectively. In each of these tables the standard error of the mean is the standard deviation of the mean divided by the square root of the number of subjects used for the evaluation.

isovaleric acid [2] = assay: Deodorant stick containing 1% malodor reduction compound, sniff test; type: in vivo, human; settings: compound at 1% by weight of deodorant stick; stick sniffed twice before 56 ppm aqueous isovaleric acid
Description: A conventional deodorant stick composition, for example one with the following composition:
is modified by the addition of compound having a malodor reduction value of 80% or more as measured by the malodor reduction test presented in Example 1 in an amount such that it accounts for 1% by weight of the deodorant stick. […] Examples of effective compounds are: 2-Isobutyl-[1,3]dioxane, 2-Isobutyl-4,5-dimethyl-[1,3]dioxolane, 2-Isobutyl-4-methyl-[1,3]dioxane, 2-Isobutyl-4-methyl-[1,3]dioxolane, 1,1-Dimethoxy-3-methyl-butane, 2-lsobutyl-[1,3]dioxolane, 2-(2-Methyl-cyclopropyl)-[1,3]dioxolane, 2-Isobutyl-5-methyl-[1,3]dioxane, 2-Methylcyclopropane methanol, Ethyl isovalerate, Methyl isovalerate, 2-Methyl-cyclopropanecarboxylic acid methyl ester, n-Propyl isovalerate, and 2-Methyl-cyclopropanecarboxylic acid ethyl ester.

| Structure (SMILES) | inhibition in vivo at 1 % v/v (isovaleric acid [1]) | block of the perception of isovaleric acid by deodorant stick (isovaleric acid [2]) |
| --- | --- | --- |
| CC(C)CC1OCCCO1 [2-Isobutyl-[1,3]dioxane] | 97% | completely block |
| CCOC(=O)CC(C)C [Ethyl isovalerate] | 94% | completely block |
| CC(=O)OCCC(C)C [Isoamylacetate] | 67% | – |
| CCOC(CC(C)C)OCC [1,1-Diethoxy-3-methyl-butane, 1,1-Diethoxy-3-methyl-butane] | 78% | – |
| CC(C)CC1OC(C)C(C)O1 (stereo not drawn) [2-Isobutyl-4,5-dimethyl-[1,3]dioxolane, 2-Isobutyl-4,5-dimethyl-[1,3]dioxolane] | 89% | completely block |
| CC1CC1CO (stereo not drawn) [2-Methylcyclopropane methanol] | 85% | completely block |
| CC(C)CCO [Isoamyl Alcohol] | 73% | – |
| CC(C)CC1OCCC(C)O1 (stereo not drawn) [2-Isobutyl-4-methyl-[1,3]dioxane, 2-Isobutyl-4-methyl-[1,3]dioxane] | 92% | completely block |
| CC1CC1C1OCCO1 (stereo not drawn) [2-(2-Methyl-cyclopropyl)-[1,3]dioxolane, 2-(2-Methyl-cyclopropyl)-[1,3]dioxolane] | 85% | completely block |
| CC(C)CC1OCC(C)O1 (stereo not drawn) [2-Isobutyl-4-methyl-[1,3]dioxolane, 2-Isobutyl-4-methyl-[1,3]dioxolane] | 89% | completely block |
| CCC1COC(CC(C)C)O1 (stereo not drawn) [4-Ethyl-2-isobutyl-[1,3]dioxolane, 4-Ethyl-2-isobutyl-[1,3]dioxolane] | 78% | – |
| CCOC(=O)C1CC1C (stereo not drawn) [2-Methyl-cyclopropanecarboxylic acid ethyl ester] | 81% | completely block |
| CC(C)CC(=O)OC(C)C [Isopropyl isovalerate] | 74% | – |
| CC(C)OC(=O)C1CC1C (stereo not drawn) [2-Methyl-cyclopropanecarboxylic acid isopropyl ester] | 68% | – |
| OCCC1CC1 [2-Cyclopropylethanol] | 74% | – |
| CC(C)CC1OCCO1 [2-Isobutyl-[1,3]dioxolane] | 87% | completely block |
| CC1(CCO)CC1 [2-(1-Methyl-cyclopropyl)-ethanol, 2-(1-Methyl-cyclopropyl)-ethanol] | 72% | – |
| COC(CC(C)C)OC [1,1-Dimethoxy-3-methyl-butane, 1,1-Dimethoxy-3-methyl-butane] | 87% | completely block |
| COC(=O)C1CC1C (stereo not drawn) [2-Methyl-cyclopropanecarboxylic acid methyl ester] | 89% | completely block |
| COC(=O)CC(C)C [Methyl isovalerate] | – | completely block |
| CC(C)CC1OCC(C)CO1 (stereo not drawn) [2-Isobutyl-5-methyl-[1,3]dioxane, 2-Isobutyl-5-methyl-[1,3]dioxane] | 80% | completely block |
| CC1CC1CCO (stereo not drawn) [2-(2-Methyl-cyclopropyl)-ethanol, 2-(2-Methyl-cyclopropyl)-ethanol] | 77% | – |
| CCCOC(=O)CC(C)C [n-Propyl isovalerate] | 83% | completely block |
